Patent US20110092547A1 (priority 2007, published 2011)

These compounds were tested against T1, human DGAT1 (Homo sapiens, UniProt O75907) (assay: Human enzyme assay, further developed assay (14C oleoyl CoA, 96 well plate)). Conditions: human DGAT1 expressed in insect cell (sf9) membranes.
T1 construct: made in house; host or cells: Sf9 insect cells (recombinant baculovirus); membrane fraction
T1 sequence (O75907 1-488): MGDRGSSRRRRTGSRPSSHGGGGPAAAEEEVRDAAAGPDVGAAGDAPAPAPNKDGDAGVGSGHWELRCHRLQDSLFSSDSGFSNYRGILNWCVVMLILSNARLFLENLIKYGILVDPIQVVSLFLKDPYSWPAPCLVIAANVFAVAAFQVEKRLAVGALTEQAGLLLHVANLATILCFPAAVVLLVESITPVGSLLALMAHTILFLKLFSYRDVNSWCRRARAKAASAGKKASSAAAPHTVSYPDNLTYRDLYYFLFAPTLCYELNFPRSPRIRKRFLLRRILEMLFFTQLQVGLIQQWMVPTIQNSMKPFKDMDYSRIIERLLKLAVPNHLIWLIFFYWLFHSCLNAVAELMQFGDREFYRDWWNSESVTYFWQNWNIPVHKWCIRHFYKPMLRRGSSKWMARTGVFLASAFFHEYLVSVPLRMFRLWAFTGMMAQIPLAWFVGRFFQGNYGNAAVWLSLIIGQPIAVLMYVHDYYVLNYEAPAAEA
Assay type: biochemical
In short: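 Enzyme from Sf9 membranes expressing baculoviral human DGAT1, 25 μg/ml final, with 5 mM MgCl2 and 100 μM 1,2-dioleoyl-sn-glycerol. Compound at 0.00003–10 μM final; reaction started with 30 μM [14C]oleoyl-CoA, 30 min at room temperature. Radiolabelled triolein extracted into heptane and counted by scintillation.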

| Structure (SMILES) | IC50 [nM] |
| --- | --- |
| COC[C@]1(C(=O)O)CC[C@H](Oc2ccc(NC(=O)c3nnc(Nc4cc(F)c(F)cc4F)o3)cn2)CC1 [Example 3, 1-(Methoxymethyl)-4-(5-(5-(2,4,5-trifluorophenylamino)-1,3,4-oxadiazole-2-carboxamido)pyridin-2-yloxy)cyclohexanecarboxylic acid] | 35 |
| O=C(Nc1ccc(O[C@H]2CC[C@@H](C(=O)O)CC2)nc1)c1nnc(Nc2cccc(Cl)c2Cl)o1 [Example 14, (1s,4s)-4-(5-(5-(2,3-dichlorophenylamino)-1,3,4-oxadiazole-2-carboxamido)pyridin-2-yloxy)cyclohexanecarboxylic acid] | 11 |
| O=C(Nc1cnc(O[C@H]2CC[C@@H](C(=O)O)CC2)c(F)c1)c1nnc(Nc2ccc(F)c(F)c2)o1 [Example 60, (1s,4s)-4-(5-(5-(3,4-Difluorophenylamino)-1,3,4-oxadiazole-2-carboxamido)-3-fluoropyridin-2-yloxy)cyclohexanecarboxylic acid] | 14 |
| O=C(Nc1ccc(O[C@H]2CC[C@@H](C(=O)O)CC2)nc1)c1nnc(Nc2cccc(OC(F)(F)F)c2)o1 [Example 6, (1s,4s)-4-(5-(5-(3-(trifluoromethoxy)phenylamino)-1,3,4-oxadiazole-2-carboxamido)pyridin-2-yloxy)cyclohexanecarboxylic acid] | 23 |
| CC(C)(C)c1ccc(Nc2nnc(C(=O)Nc3ccc(O[C@H]4CC[C@H](C(=O)O)CC4)nc3)o2)cc1 [Example 31, (1r,4r)-4-(5-(5-(4-tert-butylphenyl-amino)-1,3,4-oxadiazole-2-carboxamido)pyridin-2-yloxy)cyclo-hexane-carboxylic acid] | 48 |
| COC[C@]1(C(=O)O)CC[C@H](Oc2ccc(NC(=O)c3nnc(Nc4ccc(F)c(F)c4)o3)cn2)CC1 [Example 4, (1r,4r)-4-(5-(5-(3,4-Difluorophenylamino)-1,3,4-oxadiazole-2-carboxamido)pyridin-2-yloxy)-1-(methoxymethyl)cyclohexanecarboxylic acid] | 15 |
